The source of these data is ChEMBL document CHEMBL6182863, “Discovery of novel rigid STING PROTAC degraders as potential therapeutics for acute kidney injury” (Eur J Med Chem, 2025).

Activity calls are given as the source filed them. No cut-off for these calls is given here. Where only a bound is given, the exact number is not on record here.

Data set [1] can be described thus: Acute toxicity in C57BL/6J mouse assessed as mortality at 30 to 179 mg/kg. Format: organism-based. The following applies: in vivo, dose 30-179 mg/kg.
Data set [2] deals with T1, Protein cereblon/Stimulator of interferon genes protein (Homo sapiens, UniProt Q96SW2+Q86WV6). The data set is described as follows: PROTAC activity at CRBN/STING in human THP-1 cells assessed as induction of STING degradation at 5 uM measured after 24 hrs by Western blotting analysis relative to control. The data set is classed as cell-based. (A western blot detects proteins with antibodies after separation by electrophoresis.)
Target sequence in this assay (Q86WV6 whole entry, looked up): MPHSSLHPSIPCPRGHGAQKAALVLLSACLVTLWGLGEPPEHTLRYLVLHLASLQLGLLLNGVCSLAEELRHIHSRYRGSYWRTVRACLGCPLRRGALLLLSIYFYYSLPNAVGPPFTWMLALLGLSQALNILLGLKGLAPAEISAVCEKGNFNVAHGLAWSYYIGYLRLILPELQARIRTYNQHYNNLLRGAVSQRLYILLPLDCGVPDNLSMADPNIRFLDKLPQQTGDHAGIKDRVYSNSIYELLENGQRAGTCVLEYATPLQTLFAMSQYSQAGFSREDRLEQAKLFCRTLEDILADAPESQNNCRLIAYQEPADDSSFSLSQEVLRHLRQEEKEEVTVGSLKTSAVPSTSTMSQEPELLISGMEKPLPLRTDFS
Target sequence in this assay (Q96SW2 whole entry, looked up): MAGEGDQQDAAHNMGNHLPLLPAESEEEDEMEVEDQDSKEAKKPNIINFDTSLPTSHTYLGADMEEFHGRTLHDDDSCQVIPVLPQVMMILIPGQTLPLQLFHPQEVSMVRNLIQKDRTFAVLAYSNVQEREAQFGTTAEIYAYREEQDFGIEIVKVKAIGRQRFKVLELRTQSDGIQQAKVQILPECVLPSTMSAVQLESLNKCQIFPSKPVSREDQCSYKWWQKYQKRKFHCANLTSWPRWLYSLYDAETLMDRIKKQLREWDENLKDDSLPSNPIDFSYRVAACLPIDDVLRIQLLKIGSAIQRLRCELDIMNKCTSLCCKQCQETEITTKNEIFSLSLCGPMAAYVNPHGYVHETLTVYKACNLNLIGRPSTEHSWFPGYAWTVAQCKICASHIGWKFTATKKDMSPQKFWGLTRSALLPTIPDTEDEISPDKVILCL

Data set [3] addresses T2, Protein cereblon/Stimulator of interferon genes protein (Mus musculus) (UniProt Q3TBT3+Q8C7D2). The data set is described as follows: In vivo inhibition of STING/TBK1/NF-kappaB signaling in C57BL/6J mouse assessed as decrease in serum CXCL10 level at 25 to 50 mg/kg, ip measured after 72 hrs by ELISA. The data set is classed as functional, organism-based. The settings on record: dose 25-50 mg/kg. (In general: ELISA stands for enzyme-linked immunosorbent assay.)

For data set [4], the system named is Mus musculus. The data set can be described thus: Renoprotective activity against cisplatin-induced C57BL/6J mouse acute kidney injury model assessed as reduction in BUN level at 25 to 50 mg/kg, ip measured after 72 hrs. Format: functional, organism-based. The settings on record: dose 25-50 mg/kg.
Data set [5] deals with T1, Protein cereblon/Stimulator of interferon genes protein. The data set can be described thus: PROTAC activity at CRBN/STING in human THP-1 cells assessed as induction of STING degradation at 5 uM incubated for 24 hrs in presence of MG132 by Western blotting analysis. The data set is classed as cell-based.
Target sequence in this assay (Q86WV6 whole entry, looked up): as the sequence (Q86WV6 whole entry, looked up) above
Target sequence in this assay (Q96SW2 whole entry, looked up): as the sequence (Q96SW2 whole entry, looked up) above
Data set [6] concerns the target T2, Protein cereblon/Stimulator of interferon genes protein (Mus musculus). The data set can be described thus: In vivo inhibition of STING/TBK1/NF-kappaB signaling in C57BL/6J mouse assessed as decrease in serum IL-6 level at 25 to 50 mg/kg, ip measured after 72 hrs by ELISA. Format: functional, organism-based. The settings on record: dose 25-50 mg/kg.
Data set [7] in a line: Acute toxicity in C57BL/6J mouse. The settings on record: in vivo, dose 30 mg/kg.
Data set [8] deals with THP-1. The data set is described as follows: PROTAC activity at CRBN/AKT in human THP-1 cells assessed as induction of AKT degradation at 1.25 to 20 uM measured after 24 hrs by Western blotting analysis. The data set is classed as cell-based. The settings on record: dose 1.25-20 µM.
For data set [9], the system named is Mus musculus. The data set can be described thus: Renoprotective activity against cisplatin-induced C57BL/6J mouse acute kidney injury model assessed as survival rate at 50 mg/kg, ip measured after 72 hrs relative to control. Format: functional.
Data set [10] is described as follows: Clearance in male Sprague-Dawley rat at 2 mg/kg, iv measured after 12 hrs by LC-MS/MS analysis. The data set is classed as ADME, organism-based. The settings on record: in vivo.
For data set [11], the system named is HK-2. The data set is described as follows: Inhibition of ROS formation in human HK-2 cells measured after 24 hrs in presence of cisplatin by DAPI staining based fluorescence microscopic analysis. The data set is classed as functional, cell-based. The following applies: dose 1.25-5 µM.
Data set [12] concerns the target T2, Protein cereblon/Stimulator of interferon genes protein (Mus musculus). The data set is described as follows: In vivo inhibition of STING/TBK1/NF-kappaB signaling in C57BL/6J mouse assessed as decrease in P-TBK1 protein level in kidney at 25 to 50 mg/kg, ip measured after 72 hrs by Western blotting analysis. The data set is classed as functional, organism-based. The following applies: dose 25-50 mg/kg.

Data set [13] in a line: AUC (0 to t) in male Sprague-Dawley rat at 2 mg/kg, iv measured after 12 hrs by LC-MS/MS analysis. The data set is classed as ADME, organism-based. The settings on record: in vivo.
Data set [14] concerns THP-1. The data set can be described thus: PROTAC activity at CRBN/ERK in human THP-1 cells assessed as induction of ERK degradation at 1.25 to 20 uM measured after 24 hrs by Western blotting analysis. The following applies: dose 1.25-20 µM. The data set is classed as cell-based.
Data set [15] concerns the target T1, Protein cereblon/Stimulator of interferon genes protein. The data set is described as follows: PROTAC activity at CRBN/STING in human THP-1 cells assessed as induction of STING degradation measured after 24 hrs by Western blotting analysis. Format: cell-based.
Target sequence in this assay (Q96SW2 whole entry): as the sequence (Q96SW2 whole entry, looked up) above
Target sequence in this assay (Q86WV6 whole entry): as the sequence (Q86WV6 whole entry, looked up) above
Data set [16] concerns Mus musculus. The data set can be described thus: Renoprotective activity against cisplatin-induced C57BL/6J mouse acute kidney injury model assessed as decrease in fecal viscosity at 25 to 50 mg/kg, ip measured after 72 hrs. The following applies: dose 25-50 mg/kg. The data set is classed as functional, organism-based.
Data set [17] deals with HK-2. The data set can be described thus: Inhibition of STING downstream signal pathway in cisplatin stimulated human HK-2 cells assessed as reduction in STING protein level at 1.25 to 5 uM pretreated with cisplatin followed by compound addition by Western blotting analysis. The settings on record: dose 1.25-5 µM. The data set is classed as cell-based.
Data set [18] relates to Mus musculus. The data set is described as follows: Renoprotective activity against cisplatin-induced C57BL/6J mouse acute kidney injury model assessed as reduction in creatinine level at 25 to 50 mg/kg, ip measured after 72 hrs. The data set is classed as functional, organism-based. The settings on record: dose 25-50 mg/kg.
Data set [19] has as its target T2, Protein cereblon/Stimulator of interferon genes protein (Mus musculus). The data set is described as follows: In vivo inhibition of STING/TBK1/NF-kappaB signaling in C57BL/6J mouse assessed as decrease in P-P65 protein level in kidney at 25 to 50 mg/kg, ip measured after 72 hrs by Western blotting analysis. The settings on record: dose 25-50 mg/kg. Format: functional, organism-based.

Data set [20] concerns the target T1, Protein cereblon/Stimulator of interferon genes protein. The data set is described as follows: PROTAC activity at CRBN/STING in human THP-1 cells assessed as induction of STING degradation at 5 uM incubated for 24 hrs in presence of bafilomycin by Western blotting analysis. Format: cell-based.
Target sequence in this assay (Q86WV6 whole entry, looked up): as above
Target sequence in this assay (Q96SW2 whole entry, looked up): as the sequence (Q96SW2 whole entry, looked up) above
Data set [21] can be described thus: Tmax in male Sprague-Dawley rat at 2 mg/kg, iv measured after 12 hrs by LC-MS/MS analysis. The following applies: in vivo. The data set is classed as ADME, organism-based.
A short description of data set [22]: Acute toxicity in C57BL/6J mouse assessed as change in body weight at 43 mg/kg. The data set is classed as organism-based. The settings on record: in vivo.

T2 sequence (Q3TBT3 whole entry, looked up): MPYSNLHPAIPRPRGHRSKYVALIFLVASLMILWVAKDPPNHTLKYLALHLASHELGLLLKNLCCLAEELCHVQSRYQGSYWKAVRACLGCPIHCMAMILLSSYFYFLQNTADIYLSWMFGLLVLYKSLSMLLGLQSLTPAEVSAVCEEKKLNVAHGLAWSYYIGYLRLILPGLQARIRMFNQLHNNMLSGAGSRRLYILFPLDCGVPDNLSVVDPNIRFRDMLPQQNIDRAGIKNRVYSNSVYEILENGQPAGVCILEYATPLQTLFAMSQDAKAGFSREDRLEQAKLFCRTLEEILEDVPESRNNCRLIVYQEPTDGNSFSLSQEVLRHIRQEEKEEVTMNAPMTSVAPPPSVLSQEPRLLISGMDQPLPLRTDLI
T2 sequence (Q8C7D2 whole entry, looked up): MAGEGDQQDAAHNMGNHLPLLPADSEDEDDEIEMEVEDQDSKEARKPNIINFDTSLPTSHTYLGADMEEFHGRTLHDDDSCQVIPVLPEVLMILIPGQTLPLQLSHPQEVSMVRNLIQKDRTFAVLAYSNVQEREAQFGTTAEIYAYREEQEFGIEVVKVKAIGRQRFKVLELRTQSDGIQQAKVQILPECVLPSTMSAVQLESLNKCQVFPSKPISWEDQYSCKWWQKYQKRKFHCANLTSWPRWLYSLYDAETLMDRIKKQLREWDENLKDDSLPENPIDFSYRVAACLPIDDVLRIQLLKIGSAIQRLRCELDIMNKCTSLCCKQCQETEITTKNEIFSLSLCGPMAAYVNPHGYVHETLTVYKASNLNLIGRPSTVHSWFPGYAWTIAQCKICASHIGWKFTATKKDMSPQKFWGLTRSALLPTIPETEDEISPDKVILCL

The LD50 is the dose expected to kill half of the subjects tested. For orientation: AUC(0-t) means exposure summed from dosing to a finite time, without extrapolation to infinity. Low readings indicate low exposure, high ones high exposure. The term DC50 denotes the concentration giving 50% degradation. As a reminder, the Tmax is the time at which the peak concentration occurs. Regarding `O=C(/C=C/C(=O)N1CCN(CC2CCN(c3cccc4c3C(=O)N(C3CCC(=O)NC3=O)C4=O)C2)CC1)Nc1ccc(NC(=O)c2ccc([N+](=O)[O-])o2)cc1` (configuration not stated), the results for the Activity result in data set [1], in data set [2] and in data set [22] were “Non-toxic”, 90.6% and 24.2 g, respectively. The inhibition result (in data set [3]; in [6]; in data set [12]; in the data set with HK-2 [17]; in data set [19]) was “Active” throughout. The result (in the data set on Mus musculus [4]; in the data set on Mus musculus [16]; with Mus musculus [18]; in data set [20]) was Active. In addition, the result (in data set [5]; in the data set on THP-1 [8]; in the data set with THP-1 [14]) was inactive. Further, the LD50 in data set [7] is over 179 mg/kg. Moreover, the survival at 50 mg/kg with Mus musculus [9] came out at 100%. Further, the CL in [10] was 3.2 L/h/kg. Further, the inhibition result in the data set on HK-2 [11] is “Dose-dependent-effect”. This molecule also gave an AUC(0-t) at 12 h in data set [13] of 729 ng·h/mL. In [15], the DC50 was found to be 620 nM. For the same molecule, in data set [21], the Tmax was 4.8 min.
